Consider eleven molecules from patent publication US10683288B2, “Epothilone B and dictyostatin analogs, their preparation and use” (The Trustees of Columbia University in the City of New York, priority 2015, dated 2020).

pIC50: −log10 of the molar value. Read-outs that look alike come from different tables or passages of the source.

For one test, the system named is DLD1 (colon). The experiment in a line: cell growth inhibition, dictyostatin analogs, DLD1. In kind it is cell-based. The following applies: for GI50: Homo sapiens. Here is the method:
(§1) The C(6)- and C(12)-(4-azidobutyl) analogs 1 and 2 as well as triazole 26 and amide 27 were assayed for cell growth inhibition against four cell lines (PC3 (prostate), 1A9 (ovarian), A549 (lung), and DLD1 (colon)) alongside reference samples of synthetic dictyostatin and paclitaxel (Table 1a).

Another test concerns A549 (lung). The test can be described thus: cell growth inhibition, dictyostatin analogs, A549. In kind it is cell-based. The following applies: for GI50: Homo sapiens. The protocol: as §1
The subject of test [1] is PC3 (prostate). The experiment in a line: cell growth inhibition, dictyostatin analogs, PC3. In kind it is cell-based. The conditions noted are these: for GI50: read-out: GI50 PC3. Here is the method:
as §1

Test [2] deals with PC3 (prostate), 1A9 (ovarian), A549 (lung), and DLD1 (colon) cell lines. The experiment in a line: cell growth inhibition, dictyostatin analogs, summary over four cell lines. In kind it is cell-based. The protocol: as §1
The next test concerns 1A9 (ovarian). The test can be described thus: cell growth inhibition, dictyostatin analogs, 1A9. In kind it is cell-based. The conditions noted are these: for GI50: read-out: GI50 1A9. Here is the method: as §1
Another test has as its system H522 (lung). The experiment in a line: cell growth inhibition, Epo B analogs, H522. In kind it is cell-based. The protocol: (§2) Compounds 19, 20 and 21 were assayed for cell growth inhibition against four cell lines (PC3 (prostate), MCF7 breast), H522 (lung), and OVCAR8 (ovarian)) alongside reference samples of Epo A, ixabepilone and taxol (Table 1).
A further test has as its system MCF7 (breast). The experiment in a line: cell growth inhibition, Epo B analogs, MCF7. In kind it is cell-based. Here is the method:
as §2

Test [3] concerns PC3 (prostate). The test can be described thus: cell growth inhibition, Epo B analogs, PC3. In kind it is cell-based. The following applies: read-out: IC50 PC3 (Prostate). The protocol: as §2
Another test relates to OVCAR8 (ovarian). The experiment in a line: cell growth inhibition, Epo B analogs, OVCAR8. In kind it is cell-based. The protocol:
as §2

The conditions of test [4]: literature; cited from earlier work.
The mark [5] stands for this setting: Homo sapiens, NCI-H522, read-out: IC50 H522 (Lung).
Where [6] appears, read: Homo sapiens, MCF7, read-out: IC50 MCF7 (Breast).
Setting [7] is: Homo sapiens, OVCAR-8, read-out: IC50 OVCAR8 (Ovarian).
Setting [8] is: Homo sapiens, NCI-H522, H522 (Lung) cell line, read-out: IC50 H522 (Lung).
Setting [9] is: Homo sapiens, MCF7 (Breast) cell line, read-out: IC50 MCF7 (Breast).
Where [10] appears, read: Homo sapiens, OVCAR-8, OVCAR8 (Ovarian) cell line, read-out: IC50 OVCAR8 (Ovarian).

As for `C=C/C=C\[C@H](C)[C@@H]1OC(=O)/C=C\C=C\[C@@H](CCCCN=[N+]=[N-])[C@@H](O)C[C@H](O)/C=C\[C@H](C)[C@H](O)[C@@H](C)C[C@@H](C)CC[C@@H](O)[C@@H]1C` [C(6) analog 1], the 50% growth inhibitory concentration (GI50) in the test on DLD1 (colon) (DLD-1, read-out: GI50 DLD1) was 1.1 nM; in the test with A549 (lung) (A549, read-out: GI50 A549), 1.1 nM; with PC3 (prostate) [1] (Prostate cell), 1.9 nM; in the test with 1A9 (ovarian) it was 2.2 nM. Moreover, in [2] (four cell lines), the “GI50 values relative to dictyostatin” value is listed as “only slightly attenuated relative to dictyostatin”.
For the molecule `C/C(=C\c1csc(C)n1)[C@@H]1C[C@@H]2OC2(C)CCC[C@H](C)[C@H](O)[C@@H](CCCCN=[N+]=[N-])C(=O)C(C)(C)[C@@H](O)CC(=O)O1` (stereo partly drawn) [Compound 19], the negative logarithm of the IC50 (pIC50) in the test with H522 (lung) (setting [5]) was 9.40; in the test on MCF7 (breast) (setting [6]), above 9.19; with PC3 (prostate) [3] (Prostate cell), 8.68; in the test on OVCAR8 (ovarian) (setting [7]), 9.00.
In the same order, the values of `CC(=O)NCCCC[C@H]1C(=O)C(C)(C)[C@@H](O)CC(=O)O[C@H](/C(C)=C/c2csc(C)n2)C[C@@H]2OC2(C)CCC[C@H](C)[C@@H]1O` (stereo partly drawn) [Compound 21] are 9.22, at least 9.19, 9.00 and 8.66.
With `C/C(=C\c1csc(C)n1)[C@@H]1C[C@@H]2O[C@@H]2CCC[C@H](C)[C@H](O)[C@@H](C)C(=O)C(C)(C)[C@@H](O)CC(=O)O1` [Epo A, epothilone A], the negative-log IC50 (pIC50) with H522 (lung) (H522 (Lung) cell line, read-out: IC50 H522 (Lung)) was 8.26; in the test on MCF7 (breast) (MCF7 (Breast) cell line, read-out: IC50 MCF7 (Breast)), 8.15; with PC3 (prostate) [3] (PC3 (Prostate) cell line), 8.15; in the test with OVCAR8 (ovarian) (OVCAR8 (Ovarian) cell line, read-out: IC50 OVCAR8 (Ovarian)), 8.22.
For `C/C(=C\c1csc(C)n1)[C@@H]1C[C@@H]2O[C@]2(C)CCC[C@H](C)[C@H](O)[C@@H](C)C(=O)C(C)(C)[C@@H](O)CC(=O)N1` [Ixabepilone], the negative-log IC50 (pIC50) with H522 (lung) (setting [8]) is 8.60; in the test on MCF7 (breast) (setting [9]) it was 8.70; with PC3 (prostate) [3] (PC3 (Prostate) cell line), 8.40; in the test with OVCAR8 (ovarian) (setting [10]), 8.48.
As for `CC(=O)O[C@H]1C(=O)[C@@]2(C)[C@H]([C@H](OC(=O)c3ccccc3)[C@]3(O)C[C@H](OC(=O)[C@H](O)[C@@H](NC(=O)c4ccccc4)c4ccccc4)C(C)=C1C3(C)C)[C@]1(OC(C)=O)CO[C@@H]1C[C@@H]2O` [Taxol, paclitaxel, reference compound], the pIC50 in the test with H522 (lung) (setting [8]) was 8.59; in the test on MCF7 (breast) (setting [9]), above 9.89; in the test with PC3 (prostate) [3] (PC3 (Prostate) cell line) it was 8.22; in the test with OVCAR8 (ovarian) (setting [10]) it was 8.72. The 50% growth inhibitory concentration (GI50) in the test on DLD1 (colon) (DLD-1, DLD1 (colon) cell line, read-out: GI50 DLD1) was determined as 15 nM; in the test with A549 (lung) (A549 (lung) cell line, read-out: GI50 A549), 1.2 nM; in the test on PC3 (prostate) [1] (PC3 (Prostate) cell line), 1.9 nM; in the test with 1A9 (ovarian) (1A9 (ovarian) cell line) it was 0.4 nM.
As to `C=C/C=C\[C@H](C)[C@@H]1OC(=O)/C=C\C=C\[C@@H](CCCCNC(C)=O)[C@@H](O)C[C@H](O)/C=C\[C@H](C)[C@H](O)[C@@H](C)C[C@@H](C)CC[C@@H](O)[C@@H]1C` [amide 27], the GI50 in the test on DLD1 (colon) (DLD-1, read-out: GI50 DLD1) worked out at 32 nM; with A549 (lung) (A549, read-out: GI50 A549), 22 nM; in the test with PC3 (prostate) [1] (Prostate cell) it was 50 nM; in the test with 1A9 (ovarian), 30 nM. Further, the “reduction in potency relative to azide 1” value in test [2] (against all four cell lines) is on record as 1-2 orders of magnitude.
In the case of `C=C/C=C\[C@H](C)[C@@H]1OC(=O)/C=C\C=C\[C@@H](C)[C@@H](O)C[C@H](O)/C=C\[C@H](C)[C@H](O)[C@@H](C)C[C@@H](C)CC[C@@H](O)[C@@H]1C` [dictyostatin], the 50% growth inhibitory concentration (GI50) in the test on DLD1 (colon) (DLD-1, read-out: GI50 DLD1) is 0.4 nM; in the test with A549 (lung) (A549, read-out: GI50 A549), 0.3 nM; in the test on PC3 (prostate) [1] (Prostate cell), 1.3 nM; in the test with 1A9 (ovarian), 0.8 nM.
As for `C=C/C=C\[C@H](C)[C@@H]1OC(=O)/C=C\C=C\[C@@H](CCCCn2nnc3c2CC[C@@H]2[C@@H](CO)[C@@H]2CC3)[C@@H](O)C[C@H](O)/C=C\[C@H](C)[C@H](O)[C@@H](C)C[C@@H](C)CC[C@@H](O)[C@@H]1C` [triazole 26], the “activity relative to azide 1” value in the test on DLD1 (colon) (DLD1 cell line) is “more substantial (though not catastrophic) reductions in potency”; in the test on A549 (lung) (A549 cell line), “more substantial (though not catastrophic) reductions in potency”; with PC3 (prostate) [1] (PC3 cell line), “only slightly diminished from that of azide 1”; with 1A9 (ovarian) (1A9 cell line), “only slightly diminished from that of azide 1”. Besides, the 50% growth inhibitory concentration (GI50) with DLD1 (colon) (DLD-1, read-out: GI50 DLD1) came to 13 nM; in the test with A549 (lung) (A549, read-out: GI50 A549), 25 nM; with PC3 (prostate) [1] (Prostate cell) it was 4.8 nM; in the test with 1A9 (ovarian), 8.4 nM.
Take C(6)-epi dictyostatin: in [4], the “potency relative to the natural product dictyostatin, in words” value is “as potent as the natural product”.
With C(6)-normethyl dictyostatin, the “loss of potency relative to the natural product dictyostatin” value in test [4] was ≤ 1 order of magnitude.
